From ChEMBL document CHEMBL1124277, “Leukotriene receptor antagonists. 4. Synthesis and leukotriene D4/E4 receptor antagonist activity of 4-(alkyl)acetophenone derivatives” (J Med Chem, 1988) come the findings set out here.

For assay [1], the target named is T1, Cysteinyl leukotriene receptor 1 (Cavia porcellus) (UniProt Q2NNR5).
T1 sequence (whole entry): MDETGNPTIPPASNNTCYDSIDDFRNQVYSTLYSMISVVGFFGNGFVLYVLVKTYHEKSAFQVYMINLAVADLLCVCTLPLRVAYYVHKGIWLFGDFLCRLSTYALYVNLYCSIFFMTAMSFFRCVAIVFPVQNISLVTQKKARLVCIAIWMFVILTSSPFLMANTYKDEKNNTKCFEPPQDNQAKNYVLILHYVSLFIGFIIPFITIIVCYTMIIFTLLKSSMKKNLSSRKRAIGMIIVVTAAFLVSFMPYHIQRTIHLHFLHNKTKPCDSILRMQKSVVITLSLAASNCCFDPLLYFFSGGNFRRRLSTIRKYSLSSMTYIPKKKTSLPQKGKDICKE
Description: Dissociation constant for leukotriene antagonist (compound) on Cysteinyl leukotriene D4 receptor in guinea pig ileum was determined. It is filed as functional, tissue-based.

The target of assay [2] is T1, Cysteinyl leukotriene receptor 1 (Cavia porcellus). Put plainly: Dissociation constant for leukotriene antagonist (compound) on LTE4 receptor in guinea pig ileum was determined. The format is functional, tissue-based.

By pKB is commonly meant the negative decadic logarithm of the KB, by convention in mol/L. A high value points to a low KB. On to `CCCc1c(CCCCc2nnn[nH]2)ccc(C(C)=O)c1O`, for which the pKB is 6.25 in assay [1] and 6.67 in assay [2].

Consider `CCCc1c(OCCCCc2nnn[nH]2)ccc(C(C)=O)c1O`, for which the figures for the pKB in assay [1] and in assay [2] were 6.93 and 7.21, respectively.

Take `CCCc1c(OCCCc2nnn[nH]2)ccc(C(C)=O)c1O`: the pKB in assay [1] was determined as 5.47; in assay [2] it was 5.64.

As for `CCCc1c(CCCCCc2nnn[nH]2)ccc(C(C)=O)c1O`, the negative-log KB (pKB) in assay [1] came out at 7.08; in assay [2], 7.5.
